Results: PubChem BioAssay AID2060907 (Molecular Pharmacology Branch, DTP, NCI, 2025)
Each block holds one compound with its values, some of them ahead of it.

System: 388556-164-R-J1-PDC complex spheroid viability
Experiment: Anticancer human tumor 388556-164-R-J1-PDC patient-derived colon adenocarcinoma cell line growth inhibition [RAS]
Details: for IC50: curve of first compound; for viability, T/C: stronger effect = lower value
In short: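 Multi-cell-type spheroids: tumor cells plus HUVEC endothelial cells and mesenchymal stem cells. RAS-pathway inhibitors were combined with targeted agents, each dosed in half-log steps down from clinical Cmax, or from 10 microM when Cmax was unknown.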

[1] = second compound 0.000949 µM, first compound 0.0316 µM
[2] = second compound 0.000949 µM, first compound 0.1 µM
[3] = second compound 0.000949 µM, first compound 0.316 µM
[4] = second compound 0.000949 µM, first compound 1 µM
[5] = second compound 0.003 µM, first compound 0.0316 µM
[6] = second compound 0.003 µM, first compound 0.1 µM
[7] = second compound 0.003 µM, first compound 0.316 µM
[8] = second compound 0.003 µM, first compound 1 µM
[9] = second compound 0.00949 µM, first compound 0.0316 µM
[10] = second compound 0.00949 µM, first compound 0.1 µM
[11] = second compound 0.00949 µM, first compound 0.316 µM
[12] = second compound 0.00949 µM, first compound 1 µM
[13] = second compound 0.03 µM, first compound 0.0316 µM
[14] = second compound 0.03 µM, first compound 0.1 µM
[15] = second compound 0.03 µM, first compound 0.316 µM
[16] = second compound 0.03 µM, first compound 1 µM
[17] = second compound 0.0949 µM, first compound 0.0316 µM
[18] = second compound 0.0949 µM, first compound 0.1 µM
[19] = second compound 0.0949 µM, first compound 0.316 µM
[20] = second compound 0.0949 µM, first compound 1 µM
[21] = second compound 0.3 µM, first compound 0.0316 µM
[22] = second compound 0.3 µM, first compound 0.1 µM
[23] = second compound 0.3 µM, first compound 0.316 µM
[24] = second compound 0.3 µM, first compound 1 µM
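Further: spheroids exposed to compound for 7 days before readout.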
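Wherever viability, T/C is given: 100% = DMSO vehicle control luminescence.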

IC50 (second compound 0.000949 µM): > 10000 nM
IC50 (second compound 0.003 µM): > 10000 nM
IC50 (second compound 0.00949 µM): 9580 nM
IC50 (second compound 0.03 µM): 7840 nM
IC50 (second compound 0.0949 µM): > 10000 nM
IC50 (second compound 0.3 µM): 7830 nM
Structure (SMILES): CC(Nc1ccc2c(c1)OCCn1cc(N3C(=O)OCC3C(F)F)nc1-2)C(N)=O (centres undefined) + CCn1c(-c2cccnc2C(C)OC)c2c3cc(ccc31)N1CCOC(CC(NC(=O)C(C(C)C)N(C)C(=O)C3(F)CCN(C(=O)C#CC(C)(C)N(C)C)CC3)C(=O)N3CCCC(N3)C(=O)OCC(C)(C)C2)C1
viability, T/C [1]: 96.7%
viability, T/C [2]: 83.7%
viability, T/C [3]: 73%
viability, T/C [4]: 79.4%
viability, T/C (second compound 0.000949 µM, first compound 3.16 µM): 59.8%
viability, T/C (second compound 0.000949 µM, first compound 10 µM): 50.9%
viability, T/C [5]: 102%
viability, T/C [6]: 82.3%
viability, T/C [7]: 82.7%
viability, T/C [8]: 67.4%
viability, T/C (second compound 0.003 µM, first compound 3.16 µM): 66.7%
viability, T/C (second compound 0.003 µM, first compound 10 µM): 50.1%
viability, T/C [9]: 87.1%
viability, T/C [10]: 89.5%
viability, T/C [11]: 80.7%
viability, T/C [12]: 69%
viability, T/C (second compound 0.00949 µM, first compound 3.16 µM): 68%
viability, T/C (second compound 0.00949 µM, first compound 10 µM): 48.1%
viability, T/C [13]: 92.4%
viability, T/C [14]: 83.6%
viability, T/C [15]: 80.7%
viability, T/C [16]: 69.6%
viability, T/C (second compound 0.03 µM, first compound 3.16 µM): 66.3%
viability, T/C (second compound 0.03 µM, first compound 10 µM): 44.4%
viability, T/C [17]: 95.8%
viability, T/C [18]: 79.1%
viability, T/C [19]: 72.3%
viability, T/C [20]: 71.4%
viability, T/C (second compound 0.0949 µM, first compound 3.16 µM): 62.9%
viability, T/C (second compound 0.0949 µM, first compound 10 µM): 50.8%
viability, T/C [21]: 76.7%
viability, T/C [22]: 71%
viability, T/C [23]: 70.8%
viability, T/C [24]: 64.9%
viability, T/C (second compound 0.3 µM, first compound 3.16 µM): 61.4%
viability, T/C (second compound 0.3 µM, first compound 10 µM): 46.6%

IC50 (second compound 0.000949 µM): 241 nM
IC50 (second compound 0.003 µM): 173 nM
IC50 (second compound 0.00949 µM): 247 nM
IC50 (second compound 0.03 µM): 185 nM
IC50 (second compound 0.0949 µM): 175 nM
IC50 (second compound 0.3 µM): 172 nM
Structure (SMILES): O=C(c1ccc(F)c(F)c1Nc1ccc(I)cc1F)N1CC(O)([C@@H]2CCCCN2)C1 + CCn1c(-c2cccnc2C(C)OC)c2c3cc(ccc31)N1CCOC(CC(NC(=O)C(C(C)C)N(C)C(=O)C3(F)CCN(C(=O)C#CC(C)(C)N(C)C)CC3)C(=O)N3CCCC(N3)C(=O)OCC(C)(C)C2)C1
viability, T/C (second compound 0.000949 µM, first compound 0.00316 µM): 94%
viability, T/C (second compound 0.000949 µM, first compound 0.01 µM): 91.1%
viability, T/C [1]: 81.7%
viability, T/C [2]: 70.6%
viability, T/C [3]: 43%
viability, T/C [4]: 25.2%
viability, T/C (second compound 0.003 µM, first compound 0.00316 µM): 104%
viability, T/C (second compound 0.003 µM, first compound 0.01 µM): 97.3%
viability, T/C [5]: 76.4%
viability, T/C [6]: 60.8%
viability, T/C [7]: 39.5%
viability, T/C [8]: 22.5%
viability, T/C (second compound 0.00949 µM, first compound 0.00316 µM): 100%
viability, T/C (second compound 0.00949 µM, first compound 0.01 µM): 96.8%
viability, T/C [9]: 77.7%
viability, T/C [10]: 64.8%
viability, T/C [11]: 47.6%
viability, T/C [12]: 22.6%
viability, T/C (second compound 0.03 µM, first compound 0.00316 µM): 115%
viability, T/C (second compound 0.03 µM, first compound 0.01 µM): 98.1%
viability, T/C [13]: 89.9%
viability, T/C [14]: 62.5%
viability, T/C [15]: 37.6%
viability, T/C [16]: 22.3%
viability, T/C (second compound 0.0949 µM, first compound 0.00316 µM): 102%
viability, T/C (second compound 0.0949 µM, first compound 0.01 µM): 97.5%
viability, T/C [17]: 84.8%
viability, T/C [18]: 57.8%
viability, T/C [19]: 41.5%
viability, T/C [20]: 23.3%
viability, T/C (second compound 0.3 µM, first compound 0.00316 µM): 81.5%
viability, T/C (second compound 0.3 µM, first compound 0.01 µM): 81.8%
viability, T/C [21]: 72.8%
viability, T/C [22]: 59.1%
viability, T/C [23]: 39.7%
viability, T/C [24]: 20.2%
